Laboratory results as given in ChEMBL document CHEMBL1201862, “PubChem BioAssay data set” (2004).
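Assay format: 96-well plates, 48-hour exposure. Abbreviation: GI50, concentration required for 50% inhibition of growth.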 Active and inactive are the calls of the source. Cut-off read from the data, not from the text of the source: active = GI50 up to about 1.1 µM and inactive = higher.

Key:
Assay in all cases: inhibition of tumour cell growth, NCI panel, 48 h
TK-10 = test system: TK-10
HCC 2998 = test system: HCC 2998
KM12 = test system: KM12
HCT-116 = test system: HCT-116
K562 = test system: K562
MOLT-4 = test system: MOLT-4
SNB-75 = test system: SNB-75
A549 = test system: A549
SF-295 = test system: SF-295
UACC-62 = test system: UACC-62
M14 = test system: M14
OVCAR-3 = test system: OVCAR-3
HL-60 = test system: HL-60
SF-268 = test system: SF-268
SN12C = test system: SN12C
OVCAR-5 = test system: OVCAR-5

Measured: GI50

O=C(O)CCC(NC(=O)c1ccc(Nc2nc3ccccc3nc2-c2cccs2)cc1)C(=O)O (stereo not given)
inactive: TK-10 > 100 µM | HCC 2998 > 100 µM | KM12 > 100 µM | HCT-116 > 100 µM | K562 > 100 µM | MOLT-4 > 100 µM | SNB-75 > 100 µM | A549 > 100 µM | SF-295 > 100 µM | UACC-62 > 100 µM | M14 > 100 µM | OVCAR-3 > 100 µM | HL-60 > 100 µM | SF-268 > 100 µM | SN12C > 100 µM | OVCAR-5 > 100 µM

O=C(NCc1ccccc1)c1cc2cc(O)c(O)cc2cn1
inactive: TK-10 39.9 µM | HCC 2998 32.7 µM | KM12 31.9 µM | HCT-116 30.3 µM | K562 12.1 µM | SNB-75 23.8 µM | A549 29 µM | SF-295 24.3 µM | UACC-62 16.6 µM | M14 16.6 µM | OVCAR-3 34.1 µM | HL-60 13.5 µM | SF-268 14.4 µM | SN12C 31.2 µM | OVCAR-5 33.5 µM

Oc1ccc(O)c(-n2cccn2)c1-n1cccn1
inactive: TK-10 > 100 µM | HCC 2998 > 100 µM | KM12 > 100 µM | K562 36.8 µM | MOLT-4 > 10 µM | SNB-75 > 100 µM | A549 > 100 µM | SF-295 37.2 µM | UACC-62 97.7 µM | M14 > 100 µM | OVCAR-3 > 100 µM | HL-60 > 10 µM | SF-268 > 100 µM | SN12C > 100 µM | OVCAR-5 > 100 µM

O=S(=O)(c1ccccc1)N1N=C2c3ccccc3CCC[C@H]2C1c1ccccc1 (stereo not given in full)
inactive: TK-10 > 100 µM | HCC 2998 > 100 µM | KM12 > 92.3 µM | HCT-116 > 100 µM | K562 > 100 µM | MOLT-4 > 87.7 µM | SNB-75 > 74.6 µM | A549 > 100 µM | SF-295 > 100 µM | UACC-62 > 87.1 µM | M14 > 100 µM | OVCAR-3 > 100 µM | HL-60 > 100 µM | SF-268 > 100 µM | SN12C > 100 µM | OVCAR-5 > 100 µM

NC(=S)N/N=C1/CN(c2ccc(Cl)c(Cl)c2)CC(=O)C1c1nc2ccccc2s1 (stereo not given)
inactive: TK-10 > 100 µM | HCC 2998 > 100 µM | KM12 42.9 µM | HCT-116 35.6 µM | K562 43 µM | SNB-75 28.5 µM | A549 > 100 µM | SF-295 46.9 µM | UACC-62 55.7 µM | M14 > 100 µM | OVCAR-3 67 µM | HL-60 68.9 µM | SF-268 46.8 µM | SN12C 95.7 µM | OVCAR-5 > 100 µM

CS(=O)(=O)c1ccc(-c2cc(-c3ccc(S(C)(=O)=O)cc3)[n+](-c3cc(-c4ccc(S(C)(=O)=O)cc4)c([O-])c(-c4ccc(S(C)(=O)=O)cc4)c3)c(-c3ccc(S(C)(=O)=O)cc3)c2)cc1
inactive: TK-10 > 100 µM | HCC 2998 > 100 µM | KM12 > 100 µM | HCT-116 > 100 µM | K562 > 100 µM | MOLT-4 > 100 µM | SNB-75 > 100 µM | A549 > 100 µM | SF-295 91.8 µM | UACC-62 > 100 µM | M14 > 100 µM | OVCAR-3 > 100 µM | SF-268 > 100 µM | SN12C > 100 µM | OVCAR-5 > 100 µM

O=C1Nc2ccc(Cl)c(I)c2C1=O
inactive: TK-10 38.5 µM | HCC 2998 14.6 µM | KM12 26.5 µM | HCT-116 15.2 µM | K562 22.3 µM | MOLT-4 22.9 µM | SNB-75 22.8 µM | A549 44.7 µM | SF-295 17.8 µM | UACC-62 18.7 µM | M14 17 µM | OVCAR-3 21.1 µM | HL-60 16.1 µM | SF-268 17.4 µM | SN12C 17.2 µM | OVCAR-5 19.7 µM

O=S1(=O)c2cc(S(=O)(=O)n3ccnc3)ccc2NC2=NCCCN21
inactive: TK-10 61 µM | HCC 2998 23 µM | KM12 24.8 µM | HCT-116 29.7 µM | K562 17.7 µM | MOLT-4 40.7 µM | SNB-75 26.7 µM | A549 34.2 µM | SF-295 29.4 µM | UACC-62 48.5 µM | M14 26.7 µM | OVCAR-3 20.3 µM | HL-60 15.5 µM | SF-268 41.2 µM | SN12C 33.3 µM | OVCAR-5 48.1 µM

CC(C)(C)C(=O)Nc1cccc2oc(-c3ccccc3)cc12
inactive: HCC 2998 > 100 µM | KM12 > 100 µM | K562 > 100 µM | MOLT-4 49.7 µM | SNB-75 85.1 µM | A549 > 100 µM | SF-295 > 100 µM | UACC-62 > 100 µM | M14 > 100 µM | OVCAR-3 > 100 µM | HL-60 66.2 µM | SN12C > 100 µM

CCOC(=O)C[C@@]12CCCN[C@]1(C)CCc1ccccc12
inactive: TK-10 > 100 µM | HCC 2998 > 100 µM | KM12 > 100 µM | HCT-116 > 100 µM | K562 > 100 µM | MOLT-4 > 100 µM | SNB-75 > 100 µM | A549 > 100 µM | SF-295 > 100 µM | UACC-62 > 100 µM | M14 > 100 µM | OVCAR-3 > 100 µM | HL-60 > 100 µM | SF-268 > 100 µM | SN12C > 100 µM | OVCAR-5 > 100 µM

CCN(CC)CCSc1c2ccccc2nc2c(OC)ccc(OC)c12
inactive: TK-10 4.97 µM | KM12 5.79 µM | HCT-116 3.04 µM | K562 2.94 µM | MOLT-4 1.65 µM | SNB-75 > 49.7 µM | A549 29.3 µM | SF-295 33.4 µM | UACC-62 3.77 µM | M14 2.44 µM | HL-60 1.73 µM | SF-268 15.1 µM | SN12C 5.73 µM | OVCAR-5 29.9 µM

O=C(O)CNS(=O)(=O)c1ccc(NC(=O)c2ccccc2[N+](=O)[O-])cc1
inactive: TK-10 > 100 µM | K562 > 100 µM | MOLT-4 > 100 µM | SNB-75 > 100 µM | A549 > 100 µM | UACC-62 > 100 µM | M14 > 100 µM | HL-60 > 100 µM | SF-268 > 100 µM | SN12C > 100 µM | OVCAR-5 > 100 µM

N#CC(C#N)=C(C(C#N)C#N)C(C#N)C#N
inactive: TK-10 > 100 µM | HCC 2998 > 100 µM | KM12 > 100 µM | HCT-116 > 100 µM | K562 > 100 µM | MOLT-4 > 100 µM | SNB-75 > 100 µM | A549 > 100 µM | SF-295 > 100 µM | UACC-62 > 100 µM | M14 > 100 µM | OVCAR-3 > 100 µM | HL-60 > 100 µM | SF-268 > 100 µM | SN12C > 100 µM | OVCAR-5 > 100 µM

CC1=CCCC(OC(N)=O)C1 (stereo not given)
inactive: TK-10 > 100 µM | HCC 2998 > 100 µM | KM12 > 100 µM | HCT-116 > 100 µM | K562 > 100 µM | MOLT-4 > 100 µM | SNB-75 97.7 µM | A549 > 100 µM | SF-295 > 100 µM | UACC-62 > 100 µM | M14 > 100 µM | OVCAR-3 > 100 µM | HL-60 > 100 µM | SF-268 > 100 µM | SN12C > 100 µM | OVCAR-5 > 100 µM

C#CCN(N=O)C(=O)ON1C(=O)CCC1=O
inactive: TK-10 > 100 µM | KM12 > 100 µM | HCT-116 > 100 µM | K562 > 100 µM | MOLT-4 > 100 µM | SNB-75 > 100 µM | A549 > 100 µM | SF-295 > 100 µM | UACC-62 > 100 µM | M14 > 100 µM | OVCAR-3 > 100 µM | HL-60 > 100 µM | SF-268 > 100 µM | SN12C > 100 µM | OVCAR-5 61.8 µM

FC(F)(F)c1ccccc1/C=N/C12CC3CC(CC(C3)C1)C2
inactive: TK-10 > 100 µM | HCC 2998 > 100 µM | KM12 > 100 µM | HCT-116 > 100 µM | K562 > 100 µM | MOLT-4 > 100 µM | SNB-75 86.1 µM | A549 > 100 µM | SF-295 > 100 µM | M14 > 100 µM | OVCAR-3 > 100 µM | HL-60 > 100 µM | SF-268 > 100 µM | SN12C > 100 µM | OVCAR-5 > 100 µM

CC1=C(C#N)C(=O)CC(c2ccc(Cl)cc2)N(C)N1 (stereo not given)
inactive: TK-10 > 100 µM | HCC 2998 > 100 µM | KM12 > 100 µM | HCT-116 > 100 µM | MOLT-4 > 100 µM | SNB-75 > 100 µM | A549 > 100 µM | SF-295 > 100 µM | M14 > 100 µM | HL-60 > 100 µM | SF-268 > 100 µM | SN12C > 100 µM | OVCAR-5 > 100 µM

Cc1ccccc1C(C#N)C(=O)C(=O)Nc1nc([N+](=O)[O-])cs1 (stereo not given)
inactive: TK-10 > 100 µM | HCC 2998 > 100 µM | KM12 > 100 µM | HCT-116 > 100 µM | SNB-75 > 100 µM | A549 > 100 µM | UACC-62 > 100 µM | M14 > 100 µM | OVCAR-3 > 100 µM | HL-60 26.2 µM | SF-268 > 100 µM | SN12C > 100 µM | OVCAR-5 > 100 µM
